Calls of active or inactive are those of the source. No cut-off for these calls is given here.
Tested on: spleen
Assay: Cytoprotective activity against 137Cs gamma-radiation-induced apoptosis in C57/BL6 mouse spleen cells preincubated for 1 hr followed by irradiation measured after 6 to 24 hrs by annexin V/FITC-propidium iodide staining-based FACS analysis
Format: functional, cell-based

Compound	Activity
NC(=O)c1ccc2[nH]c(-c3ccc(Oc4ccc(Br)cc4)cc3)nc2c1	Active
NC(=O)c1ccc2[nH]c(-c3ccc(Oc4ccc(Cl)cc4)cc3)nc2c1	Active
COc1cc(Oc2ccc(-c3nc4cc(C(N)=O)ccc4[nH]3)cc2)ccc1Br	Active
COc1ccc(Sc2ccc(-c3nc4cc(C(N)=O)ccc4[nH]3)cc2)cc1	Active
NC(=O)c1ccc2[nH]c(-c3ccc(Oc4ccc(Br)c(O)c4)cc3)nc2c1	Active
NC(=O)c1ccc2[nH]c(-c3ccc(Oc4ccc5c(c4)OCO5)cc3)nc2c1	Active
NC(=O)c1ccc2[nH]c(-c3ccc(Oc4ccc(I)cc4)cc3)nc2c1	Active
NC(=O)c1ccc2[nH]c(-c3ccc(Sc4ccc(O)cc4)cc3)nc2c1	Active
Cc1ccc(Sc2ccc(-c3nc4cc(C(N)=O)ccc4[nH]3)cn2)cc1	Active
NC(=O)c1ccc2[nH]c(-c3ccc(Sc4ccc(F)c(Cl)c4)cc3)nc2c1	Active
NC(=O)c1ccc2[nH]c(-c3ccc(Sc4ccc(Cl)cc4)nc3)nc2c1	Active
COc1cccc(Sc2ccc(-c3nc4cc(C(N)=O)ccc4[nH]3)cc2)c1	Active
NC(=O)c1ccc2[nH]c(-c3ccc(Oc4ccc5ccccc5c4)cc3)nc2c1	Active

Tested on: not listed separately
Assay: Anticlonogenic activity against ionizing radiation/chemotherapeutic agent-treated clonogenic tumor cells (unknown origin) preincubated for 12 to 48 hrs followed by growth medium addition without compound measured after 7 to 14 days by crystal violet staining-based assay relative to control
Format: functional

Compound	Activity
NC(=O)c1ccc2[nH]c(-c3ccc(Oc4ccc(Cl)cc4)cc3)nc2c1	Active
